Source: paper PMC11477289, “Low-Basicity 5-HT6 Receptor Ligands from the Group of Cyclic Arylguanidine Derivatives and Their Antiproliferative Activity Evaluation” (International Journal of Molecular Sciences, 2024)

Assay: PAMPA permeability test
Type: in vitro ADME
Conditions: PBS pH 7.4, 5 h, room temperature
Procedure: This test allows the determination of the compound’s passive diffusion through biological membranes.
Precoated PAMPA Plate System Gentest was obtained from Corning (Tewksbury, MA, USA). Test compounds and caffeine solutions (200 µM) were prepared in a PBS buffer (pH = 7.4) and then added to the PAMPA plate. The plate was incubated at room temperature for 5 h without agitation. Then, 150 µL was aspirated from both acceptor (A) and donor (D) wells and then diluted with a 150 µL internal standard (IS) solution. The concentrations of the tested compounds in wells A and D were estimated using an LC/MS Waters ACQUITY™ TQD system with a TQ detector (Waters, Milford, CT, USA). The values of Pe were estimated according to the exact formulas provided by Corning and previously described in the literature.
4. Absorption – PAMPA permeability test
*Permeability coefficient. Compound is permeable if Pe≥1.5×10-6 cm/s
**CFN = caffeine, well-permeable control
UPLC of Caffeine solution in PBS (pH=7.4) after 5h of incubation: acceptor well
(above), donor well (below). IS – internal standard.
UPLC of PR 68 solution in PBS (pH=7.4) after 5h of incubation: acceptor well (above),
donor well (below). IS – internal standard. […]

For `Cn1c(=O)c2c(ncn2C)n(C)c1=O` [caffeine, reference compound], the Papp at 5 h, 200 µM (PAMPA, read-out: PAMPA Pe) was 8.23 ×10⁻⁶ cm/s and the “PAMPA Pe” value was 8.23 10^−6 cm/s.
